pIC50: −log10 of the molar value.
How the values were obtained:
EGFR L858R/T790M = EGFR L858R/T790M (Homo sapiens (Human), UniProt P00533, L858R/T790M); experiment: TR-FRET assay for ERBB kinases; assay type: biochemical; details: geometric mean if measured more than once
Summary of the method: (§1)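 HEPES pH 7.5 buffer with 10 mM MgCl2 and 1 mM DTT; 10 min enzyme–compound pre-incubation. A 10 min room-temperature reaction was initiated by a mix carrying 3 mM ATP, stopped with EDTA, and detected by time-resolved FRET at 340 nm excitation.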

EGFR L858R/T790M/C797S = EGFR L858R/T790M/C797S (Homo sapiens (Human), UniProt P00533, C797S/L858R/T790M); experiment: TR-FRET assay for ERBB kinases; assay type: biochemical; details: geometric mean if measured more than once
Summary of the method: as §1

EGFR WT = EGFR WT (Homo sapiens (Human), UniProt P00533); experiment: TR-FRET assay for ERBB kinases; assay type: biochemical; details: geometric mean if measured more than once
Summary of the method: as §1

EGFR Exon20NPG = EGFR Exon20NPG (Homo sapiens (Human), UniProt P00533, INS770NPG); experiment: TR-FRET assay for ERBB kinases; assay type: biochemical; details: geometric mean if measured more than once
Summary of the method: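 Phosphorylation of fluorescein-labeled poly-GluTyr read as TR-FRET using Tb-pY20 antibody after EDTA stop, with 340 nm excitation. Kinase reaction ran 10 min at room temperature following 10 min compound pre-incubation; substrate mix held 3 mM ATP and 30 µM peptide before addition. Buffer was HEPES pH 7.5.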

EGFR Exon 20 ASV (HeLa*) = EGFR Exon 20 ASV (HeLa*) (Homo sapiens (Human), UniProt P00533, DUP767-769); experiment: EGFR protein degradation assay (Western blot); assay type: cell-based; details: 72 hours, 300 nM to 10 nM
[1] = target: EGFR-wt (MDA-MB-231 or MCF7 or A549 or OVCAR8) (Homo sapiens (Human), UniProt P00533); experiment: EGFR protein degradation assay (Western blot); assay type: cell-based; details: 72 hours, 300 nM to 10 nM
Summary of the method: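 EGFR degradation was assessed by Western blot. Cells expressing the appropriate EGFR were seeded in 6-well plates (300,000 cells per well) and adhered overnight. Media was removed, cells were washed with cold phosphate-buffered saline, scraped into 400 μl Cell Signaling lysis buffer plus protease inhibitor cocktail, and spun once at 10 000 rpm for 10 minutes. After BCA quantification, loading buffer and reducing agent were added. Gels loaded with 10 μg protein ran at 165V for 2 hours, and bands were visualized by chemiluminescence.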

Chain of EGFR Exon20NPG (P00533 other isoform, or with tags, fused parts or gaps del 1-694/ins NPG behind 770 limits assumed): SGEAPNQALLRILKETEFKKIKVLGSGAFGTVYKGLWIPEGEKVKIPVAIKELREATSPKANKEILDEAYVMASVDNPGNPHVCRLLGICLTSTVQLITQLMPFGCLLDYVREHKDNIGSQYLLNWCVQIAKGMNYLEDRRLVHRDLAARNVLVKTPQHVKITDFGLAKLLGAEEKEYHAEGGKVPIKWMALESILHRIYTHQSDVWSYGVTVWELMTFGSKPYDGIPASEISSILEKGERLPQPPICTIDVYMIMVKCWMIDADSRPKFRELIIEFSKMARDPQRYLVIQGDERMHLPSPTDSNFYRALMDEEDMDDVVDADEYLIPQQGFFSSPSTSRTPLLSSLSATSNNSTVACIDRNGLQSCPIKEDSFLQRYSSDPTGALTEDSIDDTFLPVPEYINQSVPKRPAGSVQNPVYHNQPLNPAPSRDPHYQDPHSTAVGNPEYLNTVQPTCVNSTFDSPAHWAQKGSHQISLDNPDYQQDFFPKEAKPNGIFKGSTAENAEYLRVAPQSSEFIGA
Chain of EGFR L858R/T790M (P00533 25-1210 T790M/L858R): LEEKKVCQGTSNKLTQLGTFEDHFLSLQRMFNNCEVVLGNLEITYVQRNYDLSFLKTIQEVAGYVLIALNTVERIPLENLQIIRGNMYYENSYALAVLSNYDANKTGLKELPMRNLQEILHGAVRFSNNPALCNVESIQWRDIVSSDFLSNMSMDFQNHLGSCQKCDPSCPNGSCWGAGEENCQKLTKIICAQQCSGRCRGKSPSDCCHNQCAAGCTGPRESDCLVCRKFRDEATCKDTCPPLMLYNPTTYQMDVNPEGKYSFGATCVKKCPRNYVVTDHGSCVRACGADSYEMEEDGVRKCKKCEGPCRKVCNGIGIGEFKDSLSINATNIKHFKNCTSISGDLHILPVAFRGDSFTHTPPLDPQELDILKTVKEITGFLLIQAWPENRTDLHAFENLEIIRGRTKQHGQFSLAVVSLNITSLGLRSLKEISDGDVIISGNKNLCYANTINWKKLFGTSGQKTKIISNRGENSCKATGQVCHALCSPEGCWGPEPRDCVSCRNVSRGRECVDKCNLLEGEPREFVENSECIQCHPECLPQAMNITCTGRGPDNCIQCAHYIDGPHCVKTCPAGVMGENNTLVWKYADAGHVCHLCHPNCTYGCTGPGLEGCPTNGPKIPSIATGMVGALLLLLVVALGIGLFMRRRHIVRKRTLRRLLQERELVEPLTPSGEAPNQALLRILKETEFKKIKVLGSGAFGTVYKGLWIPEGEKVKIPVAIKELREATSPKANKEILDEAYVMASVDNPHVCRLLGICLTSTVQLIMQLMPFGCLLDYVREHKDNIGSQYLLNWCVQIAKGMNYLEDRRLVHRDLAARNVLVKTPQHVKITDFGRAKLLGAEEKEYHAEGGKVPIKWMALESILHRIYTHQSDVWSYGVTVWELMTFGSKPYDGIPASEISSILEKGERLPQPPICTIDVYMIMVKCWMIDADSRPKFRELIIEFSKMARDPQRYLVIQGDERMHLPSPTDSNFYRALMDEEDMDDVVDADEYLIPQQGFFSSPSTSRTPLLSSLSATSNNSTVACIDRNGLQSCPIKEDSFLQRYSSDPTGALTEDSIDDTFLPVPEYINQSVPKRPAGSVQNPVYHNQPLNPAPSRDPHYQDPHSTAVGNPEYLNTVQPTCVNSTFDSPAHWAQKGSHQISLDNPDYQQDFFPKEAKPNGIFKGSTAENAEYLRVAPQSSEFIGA
Chain of EGFR Exon 20 ASV (HeLa*) (P00533 other isoform, or with tags, fused parts or gaps dup 767-769): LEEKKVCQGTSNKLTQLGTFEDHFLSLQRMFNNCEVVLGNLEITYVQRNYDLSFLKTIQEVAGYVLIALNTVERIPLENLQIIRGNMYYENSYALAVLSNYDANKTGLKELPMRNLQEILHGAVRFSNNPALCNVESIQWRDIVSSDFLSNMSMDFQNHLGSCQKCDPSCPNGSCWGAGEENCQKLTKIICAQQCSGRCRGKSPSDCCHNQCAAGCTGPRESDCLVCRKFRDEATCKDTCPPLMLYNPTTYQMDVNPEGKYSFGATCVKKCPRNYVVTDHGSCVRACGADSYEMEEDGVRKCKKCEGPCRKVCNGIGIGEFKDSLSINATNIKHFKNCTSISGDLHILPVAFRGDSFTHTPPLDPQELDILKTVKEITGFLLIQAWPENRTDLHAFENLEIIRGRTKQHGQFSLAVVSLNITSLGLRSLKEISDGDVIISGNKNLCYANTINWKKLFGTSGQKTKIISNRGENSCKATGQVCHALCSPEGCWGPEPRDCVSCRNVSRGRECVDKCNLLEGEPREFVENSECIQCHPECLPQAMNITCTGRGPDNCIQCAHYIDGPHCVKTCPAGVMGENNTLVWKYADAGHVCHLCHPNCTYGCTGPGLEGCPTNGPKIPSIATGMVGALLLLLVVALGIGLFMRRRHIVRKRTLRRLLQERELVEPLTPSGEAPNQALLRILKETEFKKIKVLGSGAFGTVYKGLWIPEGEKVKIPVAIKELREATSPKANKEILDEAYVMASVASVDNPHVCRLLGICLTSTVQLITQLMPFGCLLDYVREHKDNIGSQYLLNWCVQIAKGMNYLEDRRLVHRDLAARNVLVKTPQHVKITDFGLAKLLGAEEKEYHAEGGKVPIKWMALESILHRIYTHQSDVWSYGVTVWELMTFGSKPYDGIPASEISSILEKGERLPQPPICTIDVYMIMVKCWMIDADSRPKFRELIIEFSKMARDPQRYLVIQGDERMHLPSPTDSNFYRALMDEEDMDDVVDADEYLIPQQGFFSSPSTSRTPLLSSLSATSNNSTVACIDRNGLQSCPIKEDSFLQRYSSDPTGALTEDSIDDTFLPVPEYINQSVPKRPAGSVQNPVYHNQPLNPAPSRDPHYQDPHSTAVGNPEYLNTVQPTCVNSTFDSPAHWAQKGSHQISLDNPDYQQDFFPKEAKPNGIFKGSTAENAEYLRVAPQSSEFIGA
Chain of EGFR L858R/T790M/C797S (P00533 25-1210 T790M/C797S/L858R): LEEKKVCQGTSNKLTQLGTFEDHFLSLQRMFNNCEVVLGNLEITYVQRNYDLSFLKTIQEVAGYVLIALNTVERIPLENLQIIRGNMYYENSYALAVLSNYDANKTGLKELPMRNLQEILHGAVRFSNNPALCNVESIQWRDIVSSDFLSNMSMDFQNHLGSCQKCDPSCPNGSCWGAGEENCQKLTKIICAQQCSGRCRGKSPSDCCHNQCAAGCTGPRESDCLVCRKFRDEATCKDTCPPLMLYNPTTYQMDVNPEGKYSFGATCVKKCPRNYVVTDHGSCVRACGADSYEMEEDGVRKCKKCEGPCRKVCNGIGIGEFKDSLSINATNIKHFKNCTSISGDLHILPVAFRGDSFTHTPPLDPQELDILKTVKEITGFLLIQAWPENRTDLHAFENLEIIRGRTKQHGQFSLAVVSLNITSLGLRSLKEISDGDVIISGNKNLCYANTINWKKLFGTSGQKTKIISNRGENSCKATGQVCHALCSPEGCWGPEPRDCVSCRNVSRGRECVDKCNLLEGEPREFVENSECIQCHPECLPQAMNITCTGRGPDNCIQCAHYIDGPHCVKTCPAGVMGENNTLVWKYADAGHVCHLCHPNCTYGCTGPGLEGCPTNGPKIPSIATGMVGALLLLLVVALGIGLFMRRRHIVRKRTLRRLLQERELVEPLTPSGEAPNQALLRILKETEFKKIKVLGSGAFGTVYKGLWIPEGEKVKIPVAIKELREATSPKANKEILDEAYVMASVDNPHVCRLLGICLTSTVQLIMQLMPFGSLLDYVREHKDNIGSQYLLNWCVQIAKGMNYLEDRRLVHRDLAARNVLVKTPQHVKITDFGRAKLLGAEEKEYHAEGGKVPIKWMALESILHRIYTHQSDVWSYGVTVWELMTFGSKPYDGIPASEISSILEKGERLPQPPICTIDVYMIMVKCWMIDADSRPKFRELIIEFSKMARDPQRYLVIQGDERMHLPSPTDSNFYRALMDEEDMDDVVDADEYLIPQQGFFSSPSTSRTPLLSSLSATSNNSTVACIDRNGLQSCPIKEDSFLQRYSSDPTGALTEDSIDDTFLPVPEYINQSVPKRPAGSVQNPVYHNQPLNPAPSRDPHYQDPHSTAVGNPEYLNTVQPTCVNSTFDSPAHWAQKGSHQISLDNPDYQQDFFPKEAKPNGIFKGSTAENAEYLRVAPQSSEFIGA

SMILES	pIC50 (EGFR L858R/T790M)	pIC50 (EGFR L858R/T790M/C797S)	pIC50 (EGFR WT)	pIC50 (EGFR Exon20NPG)	EGFR protein remaining, EGFR Exon 20 ASV (EGFR Exon 20 ASV (HeLa*))	EGFR protein remaining, EGFR-wt [1]
Cc1ncsc1-c1ccc(CNC(=O)[C@@H]2C[C@@H](O)CN2C(=O)[C@H](C(C)C)N2Cc3ccccc3C2=O)c(OCCOCCOCCOCCOCCN2CCN(Cc3ccc(-c4cc5c(NCc6ccccc6Cl)ncnc5[nH]4)cc3)CC2)c1 [compound 110]	5.07	4.92	6.11	5.74	C (>80% EGFR protein remaining after 72 hours of incubation with the test compound at a concentration of 300 nM)	C (>80% EGFR protein remaining after 72 hours of incubation with the test compound at a concentration of 300 nM)
Cc1ncsc1-c1ccc(CNC(=O)[C@@H]2C[C@@H](O)CN2C(=O)[C@H](C(C)C)N2Cc3ccccc3C2=O)c(OCCOCCOCCN2CCN(Cc3ccc(-c4cc5c(NCc6ccccc6Cl)ncnc5[nH]4)cc3)CC2)c1 [Example 108, (2S,4R)—N-(2-(2-(2-(2-(4-(4-(4-((2-Chlorobenzyl)amino)-7H-pyrrolo[2,3-d]pyrimidin-6-yl)benzyl)piperazin-1-yl)ethoxy)ethoxy)ethoxy)-4-(4-methylthiazol-5-yl)benzyl)-4-hydroxy-1-((S)-3-methyl-2-(1-oxoisoindolin-2-yl)butanoyl)pyrrolidine-2-carboxamide]	5.00	5.11	6.11	6.01	C (>80% EGFR protein remaining after 72 hours of incubation with the test compound at a concentration of 300 nM)	C (>80% EGFR protein remaining after 72 hours of incubation with the test compound at a concentration of 300 nM)
Cc1ncsc1-c1ccc(CNC(=O)[C@@H]2C[C@@H](O)CN2C(=O)[C@H](C(C)C)N2Cc3ccccc3C2=O)c(OCCN2CCN(Cc3ccc(-c4cc5c(NCc6ccccc6Cl)ncnc5[nH]4)cc3)CC2)c1 [Example 106, (2S,4R)—N-(2-(2-(4-(4-(4-((2-chlorobenzyl)amino)-7H-pyrrolo[2,3-d]pyrimidin-6-yl)benzyl)piperazin-1-yl)ethoxy)-4-(4-methylthiazol-5-yl)benzyl)-4-hydroxy-1-((S)-3-methyl-2-(1-oxoisoindolin-2-yl)butanoyl)pyrrolidine-2-carboxamide]	5.31	5.28	6.33	5.72	C (>80% EGFR protein remaining after 72 hours of incubation with the test compound at a concentration of 300 nM)	C (>80% EGFR protein remaining after 72 hours of incubation with the test compound at a concentration of 300 nM)
O=C1CCC(N2C(=O)c3ccc(OCCOCCOCCOCCOCCN4CCN(Cc5ccc(C6Cc7c(NCc8ccccc8Cl)ncnc7N6)cc5)CC4)cc3C2=O)C(=O)N1 (centres unmarked) [compound 104]	4.92	5.09	6.23	6.29	C (>80% EGFR protein remaining after 72 hours of incubation with the test compound at a concentration of 300 nM)	C (>80% EGFR protein remaining after 72 hours of incubation with the test compound at a concentration of 300 nM)
O=C1CCC(N2C(=O)c3ccc(OCCOCCN4CCN(Cc5ccc(-c6cc7c(NCc8ccccc8Cl)ncnc7[nH]6)cc5)CC4)cc3C2=O)C(=O)N1 (centres unmarked) [Example 102, 5-(2-(2-(4-(4-(4-((2-chlorobenzyl)amino)-7H-pyrrolo[2,3-d]pyrimidin-6-yl)benzyl)piperazin-1-yl)ethoxy)ethoxy)-2-(2,6-dioxopiperidin-3-yl)isoindoline-1,3-dione]					C (>80% EGFR protein remaining after 72 hours of incubation with the test compound at a concentration of 300 nM)	C (>80% EGFR protein remaining after 72 hours of incubation with the test compound at a concentration of 300 nM)

— patent publication US10994015B2, “EGFR proteolysis targeting chimeric molecules and associated methods of use” (Arvinas Operations, Inc., priority 2016, dated 2021)
